Several values for one entry are separate records, joined by “and”; a condition that tells them apart may be missing. Equal entries are not always repeated.
How the values were obtained:
rat tail jerk = rat tail jerk assay (increase in reaction time over control); format: in vivo
Text: The compounds of this invention are also active in the rat tail jerk assay, another standard pharmacologic test for analgesic activity of the opiate-type. Such activity is manifested as an increase in the reaction time of the animal in removing (jerking) its tail from a nearby heat stimulus (a resistance wire) after drug administration compared to control time (no drug administered). Table 2 which follows gives the increased reaction times over control times produced by the compounds of this invention when administered subcutaneously. In Tables 2 and 3, column 1 gives the name of the compound; column 2, the dose; column 3, time of observation after administration of the drug; column 4, the increase in reaction time above control in seconds; and column 5, the level of significance of the results ("p" value). […] All drugs were administered as aqueous solutions. More than one value for a given dose level indicates multiple determinations. The results are not averaged.

[1] = test system: writhing in mice induced by the intraperitoneal injection of acetic acid; assay: mouse-writhing test (inhibition of writhing induced by intraperitoneal acetic acid); format: in vivo; settings: reading at 0.25 hours
Text: In the Table, column 1 gives the name of the compund; column 2, the dosage in mg./kg. of mouse weight; column 3, the route of administration of the drug ("S.C." is subcutaneous and "or" is oral); and column 4, the percent inhibition found at the particular dose level. […] Median inhibiting doses (I.D.50) are also included in the Table.

toxicity (L.D.50) = format: in vivo, mice; settings: compared with dl mixture
morphine = assay: modified rat tail jerk assay, antagonism of morphine; format: in vivo, rats
Method: The ability of the compounds of this invention to antagonize the action of morphine, an opiate, is shown by the following modification of the aforementioned rat tail jerk assay: The standard assay procedure is used with the exception that a 7 amps. current is used instead of a 6 amps. current in the hot wire to decrease the measurable agonist effects of the antagonist. The drugs under test are then administered to groups of rats at different dose levels at different times prior to test, with a 5 mg./kg. dose of morphine invariably being administered 10 minutes prior to test. Positive evidence of antagonism is a decreased reaction time over that to be expected from the morphine. […] Among the compounds of this invention, those in which R in Structure I is cyclopropylmethyl are the preferred antagonists, showing activity in the above test procedure. […] In a series of determinations, it was ascertained that the minimum subcutaneous dose necessary to reduce the analgesic effects of a 5 mg./kg. subcutaneous dose of morphine was in the range 2.5-5.0 mg./kg. and the minimum oral dose, 5-10 mg./kg.

[2] = test system: morphine induced Straub tail; assay: blocking of morphine induced Straub tail in mice; format: in vivo; settings: for blocking on the morphine-induced Straub tail: 15 and 30 minutes before assay
Method: In this assay, a 40 mg./kg. dose of morphine was administered to mice 15 minutes prior to assay, and the test drug at various intervals before assay. Trans-dl-1 -cyclopropylmethyl-3a-(m-hydroxyphenyl)-1,2,3,3a,4,5,6,7,7a,8-decahydroisoquinoline maleate gave a 100 percent block of the Straubed tail effected by a subcutaneous injection of 40 mg./kg. of morphine when the test drug was given at a dose of 50 mg./kg. subcutaneously 15 minutes prior to assay, and 80 percent when given 30 minutes prior to assay. The l(-) isomer gave 100 percent blocking on the morphine-induced Straub tail at 50 and 20 mg./kg. doses 15 and 30 minutes before assay.

[3] = subcutaneous, 10 mg./kg., 15 min
[4] = subcutaneous, 50 mg./kg., 15 min

Structure (SMILES): O=C(O)/C=C\C(=O)O.Oc1cccc([C@@]23CCCC[C@H]2CN(CC2CC2)CC3)c1 (stereo in doubt) [Trans-d(+)-1-cyclopropylmethyl-3a-(m-hydroxyphenyl)-1,2,3,3a] [Trans-d(+)-1-cyclopropylmethyl-3a-(m-hydroxyphenyl)-1,2,3,3a,4,5,6,7,7a,8-decahydroisoquinoline maleate]
- Increase in Reaction Time Over Control (rat tail jerk; oral, 100 mg./kg., 30 min): 0 s
- Increase in Reaction Time Over Control (rat tail jerk; oral, 100 mg./kg., 60 min): 0 s
- Increase in Reaction Time Over Control (rat tail jerk; oral, 100 mg./kg., 120 min): .40 s
- Increase in Reaction Time Over Control (rat tail jerk; oral, 150 mg./kg., 15 min): 0 s
- Increase in Reaction Time Over Control (rat tail jerk; oral, 150 mg./kg., 30 min): 0 s
- Increase in Reaction Time Over Control (rat tail jerk; oral, 150 mg./kg., 60 min): .35 s
- Increase in Reaction Time Over Control (rat tail jerk; oral, 150 mg./kg., 120 min): .30 s
- Increase in Reaction Time Over Control (rat tail jerk; oral, 150 mg./kg., 180 min): .30 s
- lethality in the rat tail jerk assay (rat tail jerk; oral, 200 mg./kg.): lethal
- Increase in Reaction Time Over Control (rat tail jerk; [3]): 0 s
- Increase in Reaction Time Over Control (rat tail jerk; [4]): .25 s
- Increase in Reaction Time Over Control (rat tail jerk; subcutaneous, 50 mg./kg., 30 min): 1.30 s
- Increase in Reaction Time Over Control (rat tail jerk; subcutaneous, 50 mg./kg., 60 min): 2.25 s
- Increase in Reaction Time Over Control (rat tail jerk; subcutaneous, 50 mg./kg., 120 min): .10 s
- Increase in Reaction Time Over Control (rat tail jerk; subcutaneous, 100 mg./kg., 15 min): .50 s
- Increase in Reaction Time Over Control (rat tail jerk; subcutaneous, 100 mg./kg., 30 min): 1.55 s
- Increase in Reaction Time Over Control (rat tail jerk; subcutaneous, 100 mg./kg., 60 min): 3.50 s
- Increase in Reaction Time Over Control (rat tail jerk; subcutaneous, 100 mg./kg., 120 min): 1.15 s
- % Inhibition ([1]; 5 mg./kg. S.C.): inact
- % Inhibition ([1]; 50 mg./kg. S.C.): 44%
- % Inhibition ([1]; 100 mg./kg. S.C.): 51%
- toxicity relative to the dl mixture (toxicity (L.D.50); listed as d(+) isomer): about the same toxicity as the dl mixture
- morphine antagonistic effects (morphine; 100 mg./kg. subcutaneous, 60 minutes before test): shows morphine antagonistic effects

Structure (SMILES): O=C(O)/C=C\C(=O)O.Oc1cccc([C@@]23CCCC[C@H]2CN(CC2CC2)CC3)c1 (stereo in doubt) [Trans-l(-)-1-cyclopropylmethyl-3a-(m-hydroxyphenyl)-1,2,3,3a] [Trans-l(-)-1-cyclopropylmethyl-3a-(m-hydroxyphenyl)-1,2,3,3a,4,5,6,7,7a,8-decahydroisoquinoline maleate]
- Increase in Reaction Time Over Control (rat tail jerk; oral, 5 mg./kg., 60 min): .20 s
- Increase in Reaction Time Over Control (rat tail jerk; oral, 10 mg./kg., 60 min): .65 s
- Increase in Reaction Time Over Control (rat tail jerk; oral, 25 mg./kg., 60 min): 1.30 s
- Increase in Reaction Time Over Control (rat tail jerk; oral, 50 mg./kg., 30 min): 2.25 s
- Increase in Reaction Time Over Control (rat tail jerk; oral, 50 mg./kg., 60 min): 2.80 s
- Increase in Reaction Time Over Control (rat tail jerk; oral, 50 mg./kg., 120 min): .80 s
- Increase in Reaction Time Over Control (rat tail jerk; oral, 100 mg./kg., 60 min): 3.15 s
- Increase in Reaction Time Over Control (rat tail jerk; oral, 200 mg./kg., 30 min, 20 sec. cut off): 4.90 s
- Increase in Reaction Time Over Control (rat tail jerk; oral, 200 mg./kg., 60 min): 5.40 s
- Increase in Reaction Time Over Control (rat tail jerk; oral, 200 mg./kg., 120 min): 2.65 s
- Increase in Reaction Time Over Control (rat tail jerk; subcutaneous, 0.1 mg./kg., 30 min): 85 s
- Increase in Reaction Time Over Control (rat tail jerk; subcutaneous, 0.5 mg./kg., 30 min): 1.30 s
- Increase in Reaction Time Over Control (rat tail jerk; subcutaneous, 1 mg./kg., 30 min): 0 s
- Increase in Reaction Time Over Control (rat tail jerk; subcutaneous, 5 mg./kg., 10 min): 2.75 s
- Increase in Reaction Time Over Control (rat tail jerk; subcutaneous, 5 mg./kg., 15 min): 3.45 s
- Increase in Reaction Time Over Control (rat tail jerk; subcutaneous, 5 mg./kg., 30 min): 3.55 s and 2.95 s
- Increase in Reaction Time Over Control (rat tail jerk; subcutaneous, 5 mg./kg., 30 min, 20 sec. cut off): 6.65 s and 6.95 s
- Increase in Reaction Time Over Control (rat tail jerk; subcutaneous, 5 mg./kg., 60 min): 1.0 s
- Increase in Reaction Time Over Control (rat tail jerk; subcutaneous, 5 mg./kg., 120 min): 0 s
- Increase in Reaction Time Over Control (rat tail jerk; subcutaneous, 5 mg./kg., 180 min): 0 s
- Increase in Reaction Time Over Control (rat tail jerk; subcutaneous, 10 mg./kg., 10 min, 20 sec. cut off): 7.30 s
- Increase in Reaction Time Over Control (rat tail jerk; [3]): 5.80 s
- Increase in Reaction Time Over Control (rat tail jerk; subcutaneous, 10 mg./kg., 15 min, 20 sec. cut off): 6.70 s
- Increase in Reaction Time Over Control (rat tail jerk; subcutaneous, 10 mg./kg., 60 min): 3.0 s
- Increase in Reaction Time Over Control (rat tail jerk; subcutaneous, 10 mg./kg., 90 min): 2.55 s
- Increase in Reaction Time Over Control (rat tail jerk; subcutaneous, 10 mg./kg., 120 min): 4.0 s
- Increase in Reaction Time Over Control (rat tail jerk; subcutaneous, 10 mg./kg., 180 min): 1.50 s
- Increase in Reaction Time Over Control (rat tail jerk; [4]): 7.35 s
- % Inhibition ([1]; 2 mg./kg. S.C.): 47%
- % Inhibition ([1]; 5 mg./kg. S.C.): 72%
- blocking on the morphine-induced Straub tail ([2]; 20 mg./kg.): 100%
- blocking on the morphine-induced Straub tail ([2]; 50 mg./kg.): 100%
- blocking the morphine induced Straub tail ([2]; morphine 40 mg./kg.): manifests antagonistic effects in blocking the morphine induced Straub tail in mice
- toxicity relative to the dl mixture (toxicity (L.D.50); listed as l(-) isomer): less toxic than the dl mixture
- dose showing antagonism of morphine (morphine; subcutaneous): 1 to 2 mg/kg
